Where “and” joins values, the source holds several entries; their conditions need not be identical. Equal values may be shown once.

This test relates to 276233-004-R-J1-PDC complex spheroid viability. Briefly: Anticancer human tumor 276233-004-R-J1-PDC patient-derived colon adenocarcinoma cell line growth inhibition [GQUAD]. The note with it: for viability, T/C: stronger effect = lower value. An excerpt:
DNA G-quadruplex Stabilizer Agents in Combinations in Complex Spheroids
A high-throughput screen of multi-cell type tumor spheroids was designed to identify active combinations of DNA G-quadruplex stabilizer agents and targeted small molecules. Complex spheroids include a stromal component modeled by human endothelial cells (HUVEC) and fibroblasts modeled by human mesenchymal stem cells (MSCs). The concentration ranges selected for each drug and investigational agent were based upon clinically achievable concentrations if the clinical Cmax of the agent was known.
Compounds. The drugs and investigational agents: pidnarulex (CX-5461; NSC782164), APTO-253 (NSC789042), BRACO-19 (NSC847499), peposertib (NSC802822), ceralasertib (NSC780249), elimusertib (NSC800525), camonsertib (NSC841442), AZD-1390 (NSC803789), olaparib (NSC753686), talazoparib (NSC767125), ART-558 (NSC835418), sotorasib (NSC818433), MRTX-1133 (NSC836407), SN-38 (NSC673596), topotecan (NSC609699), etoposide (NSC141540), doxorubicin (NSC123127), gemcitabine (NSC613327), 5-fluorouracil (NSC19893), paclitaxel (NSC125973), vemurafenib (NSC761431), panobinostat (NSC761190), R-306465 (JNJ-16241199; NSC773264), adavosertib (NSC754352), TP-3654 (NSC805149), carboplatin (NSC241240), KSQ-4279 (NSC840948), and staurosporine (NSC755774) were obtained from the National Cancer Institute (NCI) Developmental Therapeutics Program Chemical Repository (34). The FDA-approved anticancer drug set is available from the NCI Developmental Therapeutics Program. […] The stock solutions were prepared in dimethyl sulfoxide (DMSO, Sigma-Aldrich, St. Louis, MO, cat. D2650) at 800-fold the tested concentration and stored at -70 degrees C prior to their use. All drugs and investigational agents were tested over a range starting from a high concentration at or near the clinical Cmax and decreasing in half-log increments. If the clinical Cmax for an agent had not been determined, the highest concentration tested was 10 microM.
2.3 Cell Culture. All cells were maintained in an incubator at 37 degrees C and 5% CO2 with 95% humidity. The PDC lines were cultured according to standard operating procedures established by the NCI PDMR. All PDCs were thawed and cultured in Matrigel-coated flasks prepared with a working solution of 1X Ham's F-12 nutrient mix, without supplementation (Invitrogen, cat. 11765054), 100 U/mL penicillin-streptomycin (Invitrogen, cat. 15140122), and 2.5% Matrigel (Corning Inc., cat. 354248) for the first three passages. The 857933-349-R-J2-PDC line was cultured in 6C/Colon 1B media, which includes advanced DMEM/F-12 (Thermo Fisher Scientific, cat. 12634028), 10 mM HEPES (Thermo Fisher Scientific, cat. 15630080), 1X GlutaMAX supplement (Thermo Fisher Scientific, cat. 35050061), 0.1 mg/mL primocin (InvivoGen, cat. ant-pm-2), 10% defined fetal bovine serum, heat inactivated (HyClone Laboratories Inc., cat. SH30070.03HI), 50% L-WRN conditioned media (ATCC, cat. CRL-3276), 1.25 mM N-Acetyl-L-cysteine (Sigma-Aldrich, cat. A9165), 10 mM nicotinamide (Sigma-Aldrich, cat. N0636), 1X B-27 supplement (Thermo Fisher Scientific, cat. 17504044), 1X N-2 supplement (Thermo Fisher Scientific, cat. 17502048), 10 microM Y-27632 dihydrochloride (Tocris Bioscience, cat. 1254), and 50 ng/mL human EGF recombinant protein (Thermo Fisher Scientific, cat. PHG0311). The 485176-168-R4-J1-PDC line was cultured in Panc media, which includes all 6C/Colon 1B media components plus 100 ng/mL human FGF-10 (Thermo Fisher Scientific, cat. 100-26), 500 nM SB-431542 (Selleckchem, cat. S1067), and gastrin (Tocris, cat. 3006).
[…]
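Note: spheroids exposed to drugs for seven days.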

By IC50 is commonly meant the concentration needed to halve the response being measured. Broadly, the viability, T/C is the result in the treated group divided by that in the control group, in per cent. Turning to `Nc1ccn(C2OC(CO)C(O)C2(F)F)c(=O)n1` (stereo not drawn) + Cc1[nH]c2ccc(F)cc2c1-c1nc2c3cccnc3c3ncccc3c2[nH]1, the IC50 reads like this: (curve of first compound, second compound 0.0316 µM) more than 10 µM; (curve of first compound, second compound 0.1 µM) more than 10 µM; (curve of first compound, second compound 0.316 µM) more than 10 µM; (curve of first compound, second compound 1 µM) more than 10 µM; (curve of first compound, second compound 3.16 µM) less than 0.0316 µM; (curve of first compound, second compound 10 µM) less than 0.0316 µM. The viability, T/C is 102% (second compound 0.0316 µM, first compound 0.0316 µM); 74.9% (second compound 0.0316 µM, first compound 0.1 µM); 74.1% (second compound 0.0316 µM, first compound 0.316 µM); 71% (second compound 0.0316 µM, first compound 1 µM); 66.2% (second compound 0.0316 µM, first compound 3.16 µM); 78.4% (second compound 0.0316 µM, first compound 10 µM). Also, the viability, T/C runs as follows: (second compound 0.1 µM, first compound 0.0316 µM) 72.1%; (second compound 0.1 µM, first compound 0.1 µM) 88.4%; (second compound 0.1 µM, first compound 0.316 µM) 61.7%; (second compound 0.1 µM, first compound 1 µM) 76.3%; (second compound 0.1 µM, first compound 3.16 µM) 82.9%; (second compound 0.1 µM, first compound 10 µM) 67.8%. The viability, T/C is, setting by setting: (second compound 0.316 µM, first compound 0.0316 µM) 67%; (second compound 0.316 µM, first compound 0.1 µM) 74.8%; (second compound 0.316 µM, first compound 0.316 µM) 79.4%; (second compound 0.316 µM, first compound 1 µM) 73%; (second compound 0.316 µM, first compound 3.16 µM) 83.2%; (second compound 0.316 µM, first compound 10 µM) 63.6%. In addition, the viability, T/C runs as follows: (second compound 1 µM, first compound 0.0316 µM) 65%; (second compound 1 µM, first compound 0.1 µM) 58.5%; (second compound 1 µM, first compound 0.316 µM) 68.8%; (second compound 1 µM, first compound 1 µM) 76.7%; (second compound 1 µM, first compound 3.16 µM) 65.8%; (second compound 1 µM, first compound 10 µM) 64.8%. Moreover, the viability, T/C was 53.8% (second compound 3.16 µM, first compound 0.0316 µM); 42% (second compound 3.16 µM, first compound 0.1 µM); 50.6% (second compound 3.16 µM, first compound 0.316 µM); 50.1% (second compound 3.16 µM, first compound 1 µM); 51.9% (second compound 3.16 µM, first compound 3.16 µM); 59.3% (second compound 3.16 µM, first compound 10 µM). Further, the viability, T/C (second compound 10 µM, first compound 0.0316 µM) was 39.7%; the viability, T/C (second compound 10 µM, first compound 0.1 µM) was 43%; the viability, T/C (second compound 10 µM, first compound 0.316 µM) is 43.4%; the viability, T/C (second compound 10 µM, first compound 1 µM) is 40.2%; the viability, T/C (second compound 10 µM, first compound 3.16 µM) was 42.2%; the viability, T/C (second compound 10 µM, first compound 10 µM) is 40%.

For the compound `CC1COCCN1c1cc(-c2ccnn2C)c2ccnc(-c3ccn[nH]3)c2n1` (stereo not drawn), the viability, T/C by setting is: (compound 0.0316 µM) 99.9% and 85.8% and 70.3%; (compound 0.1 µM) 85.9% and 83.5% and 72.1%; (compound 0.316 µM) 83.8% and 82.2% and 60.7%; (compound 1 µM) 68.7% and 82.9% and 70.1%; (compound 3.16 µM) 77.7% and 57.3% and 56.7%; (compound 10 µM) 58.9% and 53.9% and 47.2%. Besides, the IC50 (curve of compound) was > 10 µM and 7.41 µM.

In the case of `C=CCn1c(=O)c2cnc(Nc3ccc(N4CCN(C)CC4)cc3)nc2n1-c1cccc(C(C)(C)O)n1`, the viability, T/C is 108% and 106% and 77.9% (compound 0.0316 µM); 92.1% and 90.6% and 74.1% (compound 0.1 µM); 70.8% and 73.3% and 90.3% (compound 0.316 µM); 63.5% and 69.4% and 61.4% (compound 1 µM); 73.4% and 78.4% and 80.3% (compound 3.16 µM); 65.8% and 87.4% and 92.2% (compound 10 µM). Further, the IC50 (curve of compound) was more than 10 µM.

As to `Cc1cccc(N(C)C(=O)C2C(O)CCN2c2nc(C)cc(C(F)(F)F)c2C#N)c1` (stereo not drawn), the viability, T/C is, setting by setting: (compound 0.0316 µM) 92.6% and 89.1% and 85.7%; (compound 0.1 µM) 69.5% and 106% and 83.8%; (compound 0.316 µM) 74.5% and 101% and 74.6%; (compound 1 µM) 94% and 109% and 85.7%; (compound 3.16 µM) 99.6% and 74.3% and 84.3%; (compound 10 µM) 111% and 91.5% and 99.2%. The IC50 (curve of compound) is more than 10 µM.

Values taken from PubChem BioAssay AID2060496 (Molecular Pharmacology Branch, DTP, NCI, 2025).
